Measurements as given in patent US6855513B1 (priority 1999, dated 2005).

How the values were obtained:
[1] = system: qsc130 (glc operon transcriptional activator); assay: Acyl-HSL induction of β-galactosidase in qsc130 mutant; assay type: cell-based, Pseudomonas aeruginosa; details: qsc130, Class III; 3OC12-HSL 2 μM, C4-HSL 5 μM
[2] = system: qsc120 (Chloramphenicol resistance); assay: Acyl-HSL induction of β-galactosidase in qsc120 mutant; assay type: cell-based, Pseudomonas aeruginosa; details: qsc120, Class III; 3OC12-HSL 2 μM, C4-HSL 5 μM
[3] = system: qsc113 (Trransmembrane protein); assay: Acyl-HSL induction of β-galactosidase in qsc113 mutant; assay type: cell-based, Pseudomonas aeruginosa; details: qsc113, Class II; 3OC12-HSL 2 μM, C4-HSL 5 μM
[4] = system: quorum sensing signaling (Las system), QSC102 lacZ; assay: Two-strain (PAO1 / QSC102) screening assay for quorum sensing inhibiting compounds; assay type: cell-based, Pseudomonas aeruginosa; details: β-galactosidase / blue color on X-gal
Protocol: In this example, the screening assay used two strains of P. aeruginosa: a wild type P. aeruginosa (PAO1) and QSC102, from Example 1 (see FIG. 8). This assay will detect inhibition of all aspects of quorum sensing signaling, e.g., signal generation and signal reception.
Microtiter plates are prepared by adding 200 μL Luria Broth (“LB”) agar, containing 0.008% 5-bromo-4-chloro-3-indolyl-β-D-galactose (X-gal) to each well. Overnight cultures of PAO1 and QSC102 are subcultured in LB to a starting absorbance at 600 nm (“A600”) of 0.05 and grown at 37° C to an A600 of 1.0. PAO1 is diluted 2.5×10^5-fold in LB and 5 μL of this is applied to the surface of the LB agar in each well. Plates are then dried in a laminar flow hood for 60 minutes. A tenfold dilution of QSC102 in LB is used to inoculate each well using a replicator. Plates are then sealed and incubated at 37° C for 40 hours. Growth and color development are evaluated visually and the data is recorded with a camera.
The test compound was present in a microtiter well and overlaid with LB agar and 5-bromo-4-chloro-3-indolyl-β-D-galactose (X-gal). Both strains were spotted on the agar in each well. […] Inhibition of signaling was evaluated qualitatively by the absence or weakening of the blue color development.

[5] = system: qsc124A&B (Pyoverdine synthetase D); assay: Acyl-HSL induction of β-galactosidase in qsc124A&B mutants; assay type: cell-based, Pseudomonas aeruginosa; details: Class III, 3OC12-HSL 2 μM, C4-HSL 5 μM
qsc133A&B (AcrB) = assay: Acyl-HSL induction of β-galactosidase in qsc133A&B mutants; assay type: cell-based, Pseudomonas aeruginosa; details: Class IV, 3OC12-HSL 2 μM, C4-HSL 5 μM
[6] = system: qsc123 (9-Cis retinol dehydrogenase); assay: Acyl-HSL induction of β-galactosidase in qsc123 mutant; assay type: cell-based, Pseudomonas aeruginosa; details: qsc123, Class III; 3OC12-HSL 2 μM, C4-HSL 5 μM
[7] = system: qsc100 (Peptide synthetase); assay: Acyl-HSL induction of β-galactosidase in qsc100 mutant; assay type: cell-based, Pseudomonas aeruginosa; details: qsc100, Class I; 3OC12-HSL 2 μM, C4-HSL 5 μM
qsc118 (RhlI) = assay: Acyl-HSL induction of β-galactosidase in qsc118 mutant; assay type: cell-based, Pseudomonas aeruginosa; details: qsc118, Class III; 3OC12-HSL 2 μM, C4-HSL 5 μM
qsc107 = assay: Acyl-HSL induction of β-galactosidase in qsc107 mutant; assay type: cell-based, Pseudomonas aeruginosa; details: qsc107, Class I; 3OC12-HSL 2 μM, C4-HSL 5 μM
[8] = system: qsc126 (Pristanimycin I synthase 3 & 4); assay: Acyl-HSL induction of β-galactosidase in qsc126 mutant; assay type: cell-based, Pseudomonas aeruginosa; details: qsc126, Class III; 3OC12-HSL 2 μM, C4-HSL 5 μM
[9] = system: qsc128 (Hydrogen cyanide synthase HcnB); assay type: cell-based, Pseudomonas aeruginosa; details: qsc128, Class III; 3OC12-HSL 2 μM, C4-HSL 5 μM
[10] = system: qsc121 (3-Oxoacyl ACP synthase); assay: Acyl-HSL induction of β-galactosidase in qsc121 mutant; assay type: cell-based, Pseudomonas aeruginosa; details: qsc121, Class III; 3OC12-HSL 2 μM, C4-HSL 5 μM
[11] = system: qsc110A&B (Pyoverdine synthetase D); assay: Acyl-HSL induction of β-galactosidase in qsc110A&B mutants; assay type: cell-based, Pseudomonas aeruginosa; details: Class II, 3OC12-HSL 2 μM, C4-HSL 5 μM
qsc131 (PhzC) = assay: Acyl-HSL induction of β-galactosidase in qsc131 mutant; assay type: cell-based, Pseudomonas aeruginosa; details: qsc131, Class III; 3OC12-HSL 2 μM, C4-HSL 5 μM
[12] = system: qsc109 (Bacitracin synthetase 3); assay: Acyl-HSL induction of β-galactosidase in qsc109 mutant; assay type: cell-based, Pseudomonas aeruginosa; details: qsc109, Class II; 3OC12-HSL 2 μM, C4-HSL 5 μM
[13] = system: qsc105 (FAD-binding protein); assay: Acyl-HSL induction of β-galactosidase in qsc105 mutant; assay type: cell-based, Pseudomonas aeruginosa; details: qsc105, Class I; 3OC12-HSL 2 μM, C4-HSL 5 μM
qsc101 = assay: Acyl-HSL induction of β-galactosidase in qsc101 mutant; assay type: cell-based, Pseudomonas aeruginosa; details: qsc101, Class I; 3OC12-HSL 2 μM, C4-HSL 5 μM
[14] = system: qsc132A&B (Unknown (B. pertusis)); assay: Acyl-HSL induction of β-galactosidase in qsc132A&B mutants; assay type: cell-based, Pseudomonas aeruginosa; details: Class IV, 3OC12-HSL 2 μM, C4-HSL 5 μM
qsc115 = assay: Acyl-HSL induction of β-galactosidase in qsc115 mutant; assay type: cell-based, Pseudomonas aeruginosa; details: qsc115, Class II; 3OC12-HSL 2 μM, C4-HSL 5 μM
[15] = system: qsc134 (Saframycin Mx1 synthetase A); assay: Acyl-HSL induction of β-galactosidase in qsc134 mutant; assay type: cell-based, Pseudomonas aeruginosa; details: qsc134, Class IV; 3OC12-HSL 2 μM, C4-HSL 5 μM
[16] = system: qsc129A&B (Cellulose binding protein p40); assay: Acyl-HSL induction of β-galactosidase in qsc129A&B mutants; assay type: cell-based, Pseudomonas aeruginosa; details: Class III, 3OC12-HSL 2 μM, C4-HSL 5 μM
[17] = system: qcs117 (ACP-like protein); assay: Acyl-HSL induction of β-galactosidase in qcs117 mutant; assay type: cell-based, Pseudomonas aeruginosa; details: qcs117, Class III; 3OC12-HSL 2 μM, C4-HSL 5 μM
[18] = system: qsc122A&B (Cytochrome p450); details: Class III, 3OC12-HSL 2 μM, C4-HSL 5 μM
[19] = system: qsc111 (Pyoverdine synthetase D); assay: Acyl-HSL induction of β-galactosidase in qsc111 mutant; assay type: cell-based, Pseudomonas aeruginosa; details: qsc111, Class II; 3OC12-HSL 2 μM, C4-HSL 5 μM
qsc108 (ORF 5) = assay: Acyl-HSL induction of β-galactosidase in qsc108 mutant; assay type: cell-based, Pseudomonas aeruginosa; details: qsc108, Class II; 3OC12-HSL 2 μM, C4-HSL 5 μM

| Structure (SMILES) | Signal response (β-galactosidase activity with signal(s) divided by activity without added signals), maximum [1] | Signal response (β-galactosidase activity with signal(s) divided by activity without added signals), maximum [2] | Signal response (β-galactosidase activity with signal(s) divided by activity without added signals), maximum [3] | Response of the QSC102 lacZ fusion to the signal [4] | Signal response (β-galactosidase activity with signal(s) divided by activity without added signals), maximum [5] | Signal response (β-galactosidase activity with signal(s) divided by activity without added signals), maximum (qsc133A&B (AcrB)) | Signal response (β-galactosidase activity with signal(s) divided by activity without added signals), maximum [6] | Signal response (β-galactosidase activity with signal(s) divided by activity without added signals), maximum [7] | Signal response (β-galactosidase activity with signal(s) divided by activity without added signals), maximum (qsc118 (RhlI)) | Signal response (β-galactosidase activity with signal(s) divided by activity without added signals), maximum (qsc107) | Signal response (β-galactosidase activity with signal(s) divided by activity without added signals), maximum [8] | Signal response (β-galactosidase activity with signal(s) divided by activity without added signals), maximum [9] | Signal response (β-galactosidase activity with signal(s) divided by activity without added signals), maximum [10] | Signal response (β-galactosidase activity with signal(s) divided by activity without added signals), maximum [11] | Signal response (β-galactosidase activity with signal(s) divided by activity without added signals), maximum (qsc131 (PhzC)) | Signal response (β-galactosidase activity with signal(s) divided by activity without added signals), maximum [12] | Signal response (β-galactosidase activity with signal(s) divided by activity without added signals), maximum [13] | Signal response (β-galactosidase activity with signal(s) divided by activity without added signals), maximum (qsc101) | Signal response (β-galactosidase activity with signal(s) divided by activity without added signals), maximum [14] | Signal response (β-galactosidase activity with signal(s) divided by activity without added signals), maximum (qsc115) | other results |
| --- | --- | --- | --- | --- | --- | --- | --- | --- | --- | --- | --- | --- | --- | --- | --- | --- | --- | --- | --- | --- | --- |
| CCCCCCCCCC(=O)CC(=O)N[C@H]1CCOC1=O [3OC12-HSL, N-(3-oxododecanoyl) homoserine lactone] | 5 | 3 | 5 | responded by turning blue | 35 | 1 | 14 | 65 | 38 | 44 | 3 | 19 | 13 | 10 | 50 | 13 | 40 | 145 | 1 | 4 | Signal response (β-galactosidase activity with signal(s) divided by activity without added signals), maximum [15]: 6; Signal response (β-galactosidase activity with signal(s) divided by activity without added signals), maximum [16]: 15; Signal response (β-galactosidase activity with signal(s) divided by activity without added signals), maximum [17]: 22; Signal response (β-galactosidase activity with signal(s) divided by activity without added signals), maximum [18]: 2; Signal response (β-galactosidase activity with signal(s) divided by activity without added signals), maximum [19]: 11; Signal response (β-galactosidase activity with signal(s) divided by activity without added signals), maximum (qsc108 (ORF 5)): 13 |
| CCCC(=O)N[C@H]1CCOC1=O [C4-HSL, butanoyl-HSL] | 1 | 7 | 1 | did not respond | 50 | 1 | 28 | 3 | 14 | 2 | 5 | 12 | 27 | 1 | 168 | 1 | 1 | 1 | 1 | 1 | Signal response (β-galactosidase activity with signal(s) divided by activity without added signals), maximum [15]: 1; Signal response (β-galactosidase activity with signal(s) divided by activity without added signals), maximum [16]: 1; Signal response (β-galactosidase activity with signal(s) divided by activity without added signals), maximum [17]: 22; Signal response (β-galactosidase activity with signal(s) divided by activity without added signals), maximum [18]: 10; Signal response (β-galactosidase activity with signal(s) divided by activity without added signals), maximum [19]: 1; Signal response (β-galactosidase activity with signal(s) divided by activity without added signals), maximum (qsc108 (ORF 5)): 1 |
